Values quoted from earlier work, collected in patent US20070027217A1, “Composition and Method for Preventing Secondary Burn Ischemia” (priority 2005, published 2007).
Entries after “also recorded” stand apart in the source; their conditions may differ.

Tests used:
burned hamster model = conditions: intravenous infusion
38% full thickness burn = conditions: burn victim taking ibuprofen for arthritis
burns = conditions: in vivo

SMILES	start of restoration of blood flow within interspaces (rat comb burn; injected immediately after burn trauma) [h]	vascular occlusion / blood flow within the interspaces (rat comb burn; systemic application or injection)	vasodilation response to burn injury (burned hamster model)	hypermetabolic response during recovery (38% full thickness burn)	vascular occlusion and loss of blood flow in burns (burns)
CC(C)Cc1ccc(C(C)C(=O)O)cc1 (centres unmarked) [ibuprofen]	16	preserves blood flow; also recorded: restores vessel patency and blood flow	reduction in the vasodilation response	failed to show the expected hypermetabolic response	
COc1ccc2c(c1)c(CC(=O)O)c(C)n2C(=O)c1ccc(Cl)cc1 [indomethacin]					does not prevent vascular occlusion and loss of blood flow
